Test results: US7435721B2, “Transport peptides such as C-terminal Erns peptide and analogues thereof” (Pepscan Systems B.V., priority 2000, dated 2008)
≈ marks a conversion by molar mass, not a printed value. Read-outs that look alike come from different tables or passages of the source. *: point of attachment. Biotin = O=C1N[C@H]2[C@H](CS[C@H]2CCCCC(=O)*)N1

How the values were obtained:
guinea pig erythrocytes = assay: Hemolytic assay, guinea pig erythrocytes; type: cell-based; conditions: 1% v/v, one hour at 37° C.
Protocol: Hemolytic assay. Hemolytic activity of various peptide concentrations was determined by incubation with human, guinea pig or sheep erythrocyte suspensions (final erythrocyte concentration, 1% v/v) for one hour at 37° C. After cooling and centrifugation, the optical density of the supernatants were measured at 540 nm. Peptide concentrations causing 50% hemolysis (EC50) were derived from the dose-response curves.

[1] = tested on: live cells in suspension or subconfluent monolayers; type: cell-based
[2] = tested on: Escherichia coli ATCC 25922; assay: Antimicrobial assay (MIC), E. coli; type: cell-based; conditions: overnight at 37° C.
Summary of the method: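 E. coli ATCC 25922 at about 5×10^5 cfu/well in Mueller Hinton II broth with two-fold peptide dilutions (final 2000 down to 3.98 μg/ml; repeat series 5000–1.22 μg/ml), overnight at 37° C. Growth scored visually and by A630; triplicate independent runs.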

[3] = tested on: fixed cells (Ebtr, SK6, sf-21, Caco-2 and HT-29); type: cell-based
human breast skin = human breast skin in vitro, two hours
Protocol: (§1) Transdermal transport. The potential of the an E^rns peptide to penetrate the skin was tested by applying 150 μl 0.3-4 mM of biotinylated peptide in a chamber containing an isolated piece of “fresh” human breast skin or in a chamber which was glued on the skin of a live pig, or applying 50 μl of peptide solution on the skin with a cotton wool tip, or applying 50 μl of a peptide solution mixed with 50 μl of contact gel on the skin for 30 minutes to 120 minutes. After the incubation time, the pig was killed, the skin was cleaned and biopsied, and a biopsy was frozen in liquid nitrogen. Cryosections of the skin samples were fixed on microscopic slides with acetone and incubated with streptavidin-FITC ( 1/100) for 30 minutes.

skin of a live pig = tested on: skin of a live pig
Protocol: as §1

[4] = Table 9, lower concentration = higher translocation activity

CC[C@H](C)[C@H](NC(=O)[C@H](CCCNC(=N)N)NC(=O)[C@H](CC(C)C)NC(=O)[C@H](CCC(N)=O)NC(=O)[C@H](CCCNC(=N)N)NC(=O)CNC(=O)[C@H](CC(C)C)NC(=O)[C@H](Cc1c[nH]c2ccccc12)NC(=O)[C@H](CO)NC(=O)[C@@H](NC(=O)[C@@H](NC(=O)[C@H](CCCNC(=N)N)NC(=O)[C@H](C)NC(=O)[C@H](C)NC(=O)CNC(=O)[C@H](CCC(N)=O)NC(=O)[C@H](CCCNC(=N)N)NC(=O)CCCC[C@@H]1SC[C@@H]2NC(=O)N[C@@H]21)C(C)C)[C@@H](C)O)C(=O)N[C@@H](C)C(=O)NCC(=O)N[C@@H](CCCCN)C(=O)N[C@@H](CCCNC(=N)N)C(=O)N[C@@H](CC(C)C)C(=O)N[C@@H](CCC(=O)O)C(=O)NCC(=O)N[C@@H](CCCNC(=N)N)C(=O)N[C@@H](CO)C(=O)N[C@@H](CCCCN)C(N)=O [194-220]
Hemolysis (peptide concentration causing 50% hemolysis) (guinea pig erythrocytes): 0.26 mg/mL | Concentration at which biotinylated peptide was still (faintly) detectable [1]: 125 nM | Concentration (translocation activity), optimization of E^rns peptide [1, 4]: 1.0 µM | Peptide concentration that inhibits cell growth (HeLa cells; HeLa, 75 minutes incubation, growth checked after 3 to 6 days): 40 µM | MIC (minimal inhibitory concentration needed to inhibit bacterial growth) [2]: 50 µg/mL (≈ 15.3 µM) | Peptide concentration that inhibits cell growth (EBTr cells; EBTr, 75 minutes incubation, growth checked after 3 to 6 days): 60 µM

CC[C@H](C)[C@H](NC(=O)[C@H](CCCNC(=N)N)NC(=O)[C@H](CC(C)C)NC(=O)[C@H](CCC(N)=O)NC(=O)[C@H](CCCNC(=N)N)NC(=O)CNC(=O)CCCC[C@@H]1SC[C@@H]2NC(=O)N[C@@H]21)C(=O)N[C@@H](C)C(=O)NCC(=O)N[C@@H](CCCCN)C(=O)N[C@@H](CCCNC(=N)N)C(=O)N[C@@H](CC(C)C)C(=O)N[C@@H](CCC(=O)O)C(=O)NCC(=O)N[C@@H](CCCNC(=N)N)C(=O)N[C@@H](CO)C(=O)N[C@@H](CCCCN)C(N)=O [205-220]
Hemolysis (peptide concentration causing 50% hemolysis) (guinea pig erythrocytes): >0.33 mg/mL | Concentration (translocation activity), optimization of E^rns peptide [1, 4]: 1.0 µM | MIC (minimal inhibitory concentration needed to inhibit bacterial growth) [2]: >500 µg/mL

$ENARQGAARVTSWLGRQLRIAGKRLEGRSKTWFGAYA# [191-227]
Time to optimal fluorescence [1]: 30 min | Translocation activity (in words) [1]: penetrated inside all cell types | Binding to fixed cells [3]: able to bind to all tested cell types | Peptide concentration that inhibits cell growth (HeLa cells): 50 µM | Peptide concentration that inhibits cell growth (EBTr cells): 50 µM

Biotin-GRQLRIAGRRLRGRSR-NH2 [MDK-20]
Concentration (translocation activity), optimization of E^rns peptide [1]: 0.1 µM | Skin penetration of biotinylated peptide (human breast skin): could be visualized with streptavidin-FITC in the epidermis and the dermis | Skin penetration of biotinylated peptide (skin of a live pig; skin of a pig in vivo): same results | Time after application at which penetration into the epidermis was observed (skin of a live pig; skin of a pig in vivo): 30 min

Biotin-RSRGRLRRGAIRLQRG-Lysine (MTT)- broomacetic acid [A941]
Concentration (translocation activity), optimization of E^rns peptide [1]: 0.03 µM | Translocation activity (in words) [1]: higher translocation activity compared with the original MDK-20 | Accumulation in the skin compared with MDK-20 (skin of a live pig; transdermal transport, skin model not given): Much more accumulation in the skin
